Data set [1] can be described thus: wn = mass fraction of the nth substance listed. The note with it: 298.15 K, 101 kPa, Liquid, Vibrating tube method.
For data set [2] the following is noted: 298.15 K; 101.33 kPa; Liquid; Vibrating tube method.
Data set [3] in a line: refractive index (Na D-line) (dimensionless). The note with it: 298.15 K; 101.33 kPa; Liquid; Standard Abbe refractometry.

± gives the expanded uncertainty stated by the source.

Broadly, the mass density is the mass of a sample divided by its volume. For the molecule `CCCC(=O)[O-].[NH3+]CCO` [2-hydroxy ethylammonium butanoate] + O, the mass density turned out to be 999.43 ± 2.2 kg/m3 in data set [1] (w1 = 0.0115); 1006.63 ± 8.8 kg/m3 in data set [1] (w1 = 0.05); 1016.39 ± 11 kg/m3 in data set [1] (w1 = 0.101); 1033.12 ± 8.9 kg/m3 in data set [1] (w1 = 0.2011); 1046.73 ± 7.6 kg/m3 in data set [1] (w1 = 0.3051); 1058.12 ± 7.3 kg/m3 in data set [1] (w1 = 0.3993).

For orientation: refractive index means a measure of how strongly the sample bends light. In the case of `CCCC(=O)[O-].[NH3+]CCO` [2-hydroxy ethylammonium butanoate], the mass density in data set [2] was 1075.12 ± 6.3 kg/m3. For the same molecule, in data set [3], the refractive index worked out at 1.4659 ± 0.0009.

(Values after the NIST ThermoML archive (doi:10.1021/acs.jced.7b00278).)
